For 26 compounds, Ratio and IC50 results are on record in patent publication US11254686B1 (Corvus Pharmaceuticals, Inc., priority 2017, dated 2022).

In one assay the target is adenosine A2B receptor (Homo sapiens (Human), UniProt P29275). Briefly: Adenosine receptor activity assay (Table 1), A2B activity. Type of assay: biochemical. The following applies: for Ratio: A2A activity to A2B activity (A2A/A2B); for IC50: read-out: Ave A2B cAMP IC50.
The target in a further assay is adenosine A2A receptor (Homo sapiens (Human), UniProt P29274). Briefly: Adenosine receptor activity assay (Table 1), A2A activity. In kind it is biochemical. The following applies: read-out: Ave A2A cAMP IC50.
Sequence of adenosine A2A receptor (P29274 whole entry): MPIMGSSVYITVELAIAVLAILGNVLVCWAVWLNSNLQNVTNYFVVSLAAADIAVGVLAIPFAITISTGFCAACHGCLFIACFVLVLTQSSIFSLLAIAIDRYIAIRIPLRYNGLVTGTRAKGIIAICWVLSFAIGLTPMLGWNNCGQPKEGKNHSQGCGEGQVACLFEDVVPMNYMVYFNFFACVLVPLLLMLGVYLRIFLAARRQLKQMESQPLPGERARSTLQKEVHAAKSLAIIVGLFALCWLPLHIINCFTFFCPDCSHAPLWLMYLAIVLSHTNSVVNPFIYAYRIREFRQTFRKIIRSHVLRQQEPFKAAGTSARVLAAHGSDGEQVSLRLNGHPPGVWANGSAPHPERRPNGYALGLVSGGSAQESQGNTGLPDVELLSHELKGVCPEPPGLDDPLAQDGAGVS

As usually defined, the IC50 is the midpoint of a concentration-inhibition curve.

Sequence of adenosine A2B receptor (P29275 whole entry): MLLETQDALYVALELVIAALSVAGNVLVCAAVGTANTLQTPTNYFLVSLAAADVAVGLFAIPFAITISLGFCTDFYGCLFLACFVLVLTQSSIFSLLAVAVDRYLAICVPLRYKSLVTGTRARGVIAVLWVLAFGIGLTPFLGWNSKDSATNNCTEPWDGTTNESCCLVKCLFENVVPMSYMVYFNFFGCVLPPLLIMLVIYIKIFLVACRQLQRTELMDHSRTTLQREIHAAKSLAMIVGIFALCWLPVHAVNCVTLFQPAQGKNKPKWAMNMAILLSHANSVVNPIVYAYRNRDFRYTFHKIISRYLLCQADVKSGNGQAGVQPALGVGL

In the case of `O=C(c1nc(NCc2cncc(C(F)(F)F)c2)nc2ccsc12)N1CC[C@H](O)C1` [Example Z264, (S)-(3-Hydroxypyrrolidin-1-yl)(2-(((5-(trifluoromethyl)pyridin-3-yl)methyl)amino)thieno[3,2-d]pyrimidin-4-yl)methanone], at adenosine A2B receptor, the Ratio is 13.34 and the IC50 was greater than 500 nM. The IC50 at adenosine A2A receptor is greater than 500 nM.

For `C[C@H](O)CNC(=O)c1nc(NCc2cncc(C(F)(F)F)c2)nc2ccsc12` [Example Z265, (S)—N-(2-Hydroxypropyl)-2-(((5-(trifluoromethyl)pyridin-3-yl)methyl)amino)thieno[3,2-d]pyrimidine-4-carboxamide], at adenosine A2B receptor, the Ratio came out at 16.94. The IC50 at adenosine A2B receptor is 100 to 500 nM; at adenosine A2A receptor, greater than 500 nM.

With `C[C@@H](O)CNC(=O)c1nc(NCc2cncc(C(F)(F)F)c2)nc2ccsc12` [Example Z266, (R)—N-(2-Hydroxypropyl)-2-(((5-(trifluoromethyl)pyridin-3-yl)methyl)amino)thieno[3,2-d]pyrimidine-4-carboxamide], at adenosine A2B receptor, the Ratio is given as 34.17 and the IC50 fell in the range of 100 to 500 nM. Moreover, at adenosine A2A receptor, the IC50 was greater than 500 nM.

As to `C[C@H](Nc1nc(C(=O)NC(CO)c2cccnc2)c2sccc2n1)c1ccccn1` (stereo partly drawn) [Example Z269, N-(2-Hydroxy-1-(pyridin-3-yl)ethyl)-2-(((S)-1-(pyridin-2-yl)ethyl)amino)thieno[3,2-d]pyrimidine-4-carboxamide], at adenosine A2B receptor, the Ratio is 0.36 and the IC50 was greater than 500 nM. Moreover, the IC50 on adenosine A2A receptor lay in the range of 100 to 500 nM.

As to `O=C(c1nc(NC(CO)c2cccnc2)nc2ccsc12)N1CCCC1` (stereo not drawn) [Example Z270, (2-((2-Hydroxy-1-(pyridin-3-yl)ethyl)amino)thieno[3,2-d]pyrimidin-4-yl)(pyrrolidin-1-yl)methanone], on adenosine A2B receptor, the Ratio is given as 27.81 and the IC50 fell in the range of 10 to 50 nM. Moreover, the IC50 on adenosine A2A receptor is greater than 500 nM.

Turning to `O=C(c1nc(NCCn2ccnc2)nc2ccsc12)N1CCCC1` [Example Z273, (2-((2-(1H-Imidazol-1-yl)ethyl)amino)thieno[3,2-d]pyrimidin-4-yl)(pyrrolidin-1-yl)methanone], on adenosine A2B receptor, the Ratio came to 2.15 and the IC50 is greater than 500 nM. Besides, the IC50 at adenosine A2A receptor was greater than 500 nM.

In the case of `C[C@H](Nc1nc(C(=O)N2CC[C@H](S(C)(=O)=O)C2)c2sccc2n1)c1ccccn1` [Example Z274], at adenosine A2B receptor, the Ratio turned out to be 1.11 and the IC50 lay in the range of 100 to 500 nM. The IC50 on adenosine A2A receptor was in the range of 100 to 500 nM.

With `C[C@H](Nc1nc(C(=O)N2CCCOC2)c2sccc2n1)c1ccccn1` [Example Z289, (S)-(1,3-Oxazinan-3-yl)(2-((1-(pyridin-2-yl)ethyl)amino)thieno[3,2-d]pyrimidin-4-yl)methanone], on adenosine A2B receptor, the Ratio worked out at 14.69 and the IC50 was in the range of 100 to 500 nM. The IC50 on adenosine A2A receptor is greater than 500 nM.

With `C[C@H](Nc1nc(C(=O)NCc2nccn2C)c2sccc2n1)c1ccccn1` [Example Z290, (S)—N-((1-Methyl-1H-imidazol-2-yl)methyl)-2-((1-(pyridin-2-yl)ethyl)amino)thieno[3,2-d]pyrimidine-4-carboxamide], on adenosine A2B receptor, the Ratio was 1.63 and the IC50 was greater than 500 nM. Also, on adenosine A2A receptor, the IC50 is greater than 500 nM.

For the compound `CO[C@H]1C[C@@H](NC(=O)c2nc(N[C@@H](C)c3cccnc3)nc3ccsc23)C1` [Example Z296, N-((1s,3R)-3-Methoxycyclobutyl)-2-(((S)-1-(pyridin-3-yl)ethyl)amino)thieno[3,2-d]pyrimidine-4-carboxamide], at adenosine A2B receptor, the Ratio is reported as 1.07. In addition, the IC50 on adenosine A2B receptor and at adenosine A2A receptor was 100 to 500 nM each time.

For `C[C@H](Nc1nc(C(=O)Nc2ccccc2)c2sccc2n1)c1ccccn1` [Example Z303, (S)—N-Phenyl-2-((1-(pyridin-2-yl)ethyl)amino)thieno[3,2-d]pyrimidine-4-carboxamide], the Ratio on adenosine A2B receptor is 3.08. Also, the IC50 on adenosine A2B receptor is 50 to 100 nM; on adenosine A2A receptor, 100 to 500 nM.

Regarding `C[C@H](Nc1nc(C(=O)NCc2ncc[nH]2)c2sccc2n1)c1ccccn1` [Example Z304, (S)—N-((1H-Imidazol-2-yl)methyl)-2-((1-(pyridin-2-yl)ethyl)amino)thieno[3,2-d]pyrimidine-4-carboxamide], on adenosine A2B receptor, the Ratio was 2.03 and the IC50 was in the range of 100 to 500 nM. Moreover, the IC50 at adenosine A2A receptor lay within 100 to 500 nM.

Consider `C[C@H](Nc1nc(C(=O)N[C@H]2C[C@H](O)C2)c2sccc2n1)c1cncc(Cl)c1` [Example Z306, 2-(((S)-1-(5-Chloropyridin-3-yl)ethyl)amino)-N-((1r,3S)-3-hydroxycyclobutyl)thieno[3,2-d]pyrimidine-4-carboxamide], for which, at adenosine A2B receptor, the Ratio is reported as 40.62 and the IC50 fell in the range of 10 to 50 nM. In addition, the IC50 on adenosine A2A receptor was greater than 500 nM.

For `COc1cncc(NC(=O)c2nc(N[C@@H](C)c3ccccn3)nc3ccsc23)c1` [Example Z307, (S)—N-(5-Methoxypyridin-3-yl)-2-((1-(pyridin-2-yl)ethyl)amino)thieno[3,2-d]pyrimidine-4-carboxamide], on adenosine A2B receptor, the Ratio came out at 5.89 and the IC50 fell in the range of 10 to 50 nM. In addition, at adenosine A2A receptor, the IC50 is 100 to 500 nM.

Turning to `C[C@H](Nc1nc(C(=O)N2CC[C@@H](NC(=O)OC(C)(C)C)C2)c2sccc2n1)c1cccnc1` [Example Z313, tert-Butyl ((R)-1-(2-(((S)-1-(pyridin-3-yl)ethyl)amino)thieno[3,2-d]pyrimidine-4-carbonyl)pyrrolidin-3-yl)carbamate], on adenosine A2B receptor, the Ratio was 0.29 and the IC50 is greater than 500 nM. Moreover, the IC50 at adenosine A2A receptor was 100 to 500 nM.

`C[C@H](Nc1nc(C(=O)N2CC[C@H](NC(=O)OC(C)(C)C)C2)c2sccc2n1)c1cccnc1` [Example Z314, tert-Butyl ((S)-1-(2-(((S)-1-(pyridin-3-yl)ethyl)amino)thieno[3,2-d]pyrimidine-4-carbonyl)pyrrolidin-3-yl)carbamate]: on adenosine A2B receptor, the Ratio came out at 0.46 and the IC50 fell in the range of 100 to 500 nM. Further, the IC50 at adenosine A2A receptor lay in the range of 50 to 100 nM.

Turning to `C[C@H](Nc1nc(C(=O)N2CC[C@H](NC(=O)OC(C)(C)C)C2)c2sccc2n1)c1ccccn1` [Example Z315, tert-Butyl ((S)-1-(2-(((S)-1-(pyridin-2-yl)ethyl)amino)thieno[3,2-d]pyrimidine-4-carbonyl)pyrrolidin-3-yl)carbamate], on adenosine A2B receptor, the Ratio was 0.67 and the IC50 was 50 to 100 nM. Besides, the IC50 at adenosine A2A receptor was 50 to 100 nM.

`CC(=O)N[C@@H]1CCN(C(=O)c2nc(N[C@@H](C)c3cccnc3)nc3ccsc23)C1` [Example Z316, N—((R)-1-(2-(((S)-1-(Pyridin-3-yl)ethyl)amino)thieno[3,2-d]pyrimidine-4-carbonyl)pyrrolidin-3-yl)acetamide]: on adenosine A2B receptor, the Ratio stood at 2.06 and the IC50 was greater than 500 nM. For the same compound, the IC50 at adenosine A2A receptor was greater than 500 nM.

In the case of `CC(=O)N[C@@H]1CCN(C(=O)c2nc(N[C@@H](C)c3ccccn3)nc3ccsc23)C1` [Example Z317, N—((R)-1-(2-(((S)-1-(Pyridin-2-yl)ethyl)amino)thieno[3,2-d]pyrimidine-4-carbonyl)pyrrolidin-3-yl)acetamide], on adenosine A2B receptor, the Ratio is 6.69 and the IC50 is greater than 500 nM. The IC50 at adenosine A2A receptor is greater than 500 nM.

With `CC(=O)N[C@@H]1CCN(C(=O)c2nc(NCc3cncc(F)c3)nc3ccsc23)C1` [Example Z318, (R)—N-(1-(2-(((5-Fluoropyridin-3-yl)methyl)amino)thieno[3,2-d]pyrimidine-4-carbonyl)pyrrolidin-3-yl)acetamide], the Ratio on adenosine A2B receptor is 17.41. Also, the IC50 on adenosine A2B receptor and at adenosine A2A receptor was greater than 500 nM in each case.

`CC(=O)N[C@@H]1CCN(C(=O)c2nc(N[C@@H](C)c3cncc(F)c3)nc3ccsc23)C1` [Example Z319, N—((R)-1-(2-(((S)-1-(5-Fluoropyridin-3-yl)ethyl)amino)thieno[3,2-d]pyrimidine-4-carbonyl)pyrrolidin-3-yl)acetamide]: at adenosine A2B receptor, the Ratio turned out to be 22.72 and the IC50 lay within 50 to 100 nM. Further, the IC50 at adenosine A2A receptor was greater than 500 nM.

With `COC[C@@H](Nc1nc(C(=O)NC[C@H](C)O)c2sccc2n1)c1cccnc1` [Example Z320, N—((S)-2-Hydroxypropyl)-2-(((S)-2-methoxy-1-(pyridin-3-yl)ethyl)amino)thieno[3,2-d]pyrimidine-4-carboxamide], the Ratio on adenosine A2B receptor was 3.92. Also, the 50% inhibitory concentration (IC50) on adenosine A2B receptor is 50 to 100 nM; on adenosine A2A receptor, 100 to 500 nM.

Turning to `COC[C@@H](Nc1nc(C(=O)NC[C@@H](C)O)c2sccc2n1)c1cccnc1` [Example Z321, N—((R)-2-Hydroxypropyl)-2-(((S)-2-methoxy-1-(pyridin-3-yl)ethyl)amino)thieno[3,2-d]pyrimidine-4-carboxamide], at adenosine A2B receptor, the Ratio worked out at 3.66 and the IC50 was in the range of 50 to 100 nM. Further, the IC50 on adenosine A2A receptor is 100 to 500 nM.

For `CC(=O)N[C@H]1CCN(C(=O)c2nc(N[C@@H](C)c3cccnc3)nc3ccsc23)C1` [Example Z322, N—((S)-1-(2-(((S)-1-(Pyridin-3-yl)ethyl)amino)thieno[3,2-d]pyrimidine-4-carbonyl)pyrrolidin-3-yl)acetamide], the Ratio on adenosine A2B receptor came out at 6.33. In addition, the IC50 is 100 to 500 nM at adenosine A2B receptor and greater than 500 nM at adenosine A2A receptor.

Take `COC[C@H](Nc1nc(C(=O)NC[C@H](C)O)c2sccc2n1)c1cccnc1` [Example Z323, N—((S)-2-Hydroxypropyl)-2-(((R)-2-methoxy-1-(pyridin-3-yl)ethyl)amino)thieno[3,2-d]pyrimidine-4-carboxamide]: at adenosine A2B receptor, the Ratio is listed as 3.30 and the IC50 is greater than 500 nM. In addition, on adenosine A2A receptor, the IC50 is greater than 500 nM.

With `CC(=O)N[C@H]1CCN(C(=O)c2nc(N[C@@H](C)c3ccccn3)nc3ccsc23)C1` [Example Z324, N—((S)-1-(2-(((S)-1-(Pyridin-2-yl)ethyl)amino)thieno[3,2-d]pyrimidine-4-carbonyl)pyrrolidin-3-yl)acetamide], on adenosine A2B receptor, the Ratio is 28.39. Further, the IC50 at adenosine A2B receptor is 10 to 50 nM; on adenosine A2A receptor, greater than 500 nM.
